Results from patent US5622965A, “4-hydroxy-3-nitro-1,2-dihydroquinolin-2-ones and the use thereof as excitatory amino acid and glycine receptor antagonists” (priority 1993, dated 1997).
Read-outs that look alike come from different tables or passages of the source.

Key:
[1] = molecular target: PCP receptor; conditions: cited from earlier work
[2] = tested on: neurons; conditions: in words; cited from earlier work
[3] = in words; cited from earlier work
[4] = tested on: glycine binding site of the NMDA receptor; conditions: cited from earlier work
[5] = cited from earlier work
[6] = tested on: rodents; conditions: in words; cited from earlier work
[7] = tested on: pigeons; conditions: in words; cited from earlier work
[8] = tested on: glycine/NMDA receptor; experiment: 1 μM glycine-stimulated [3H]-MK801 binding assay (glycine/NMDA receptor); design: species or system rat; conditions: for potency relative to 5,7-dichlorokynurenic acid (DCK): % of DCK; for Ki: glycine/NMDA receptor binding
Description: This assay takes advantage of the fact that the binding of [^3 H]-MK801 to the PCP receptor inside the pore of the NMDA channel is dependent on the presence of both glutamate and glycine. In the absence of glycine but in the presence of glutamate, [^3 H]-MK801 cannot bind effectively to the PCP receptor, because the NMDA channel remains closed and access of [^3 H]-MK801 to the PCP receptor inside the closed channel pore is severely restricted.
The assay is conducted using rat brain membrane homogenates which are enriched in NMDA receptors. The membranes are prepared as follows. Frozen rat brains obtained from Pel-Freez, Rogers, Arkansas) are homogenized in 15 volumes (w/v) of ice cold 0.32M sucrose. The homogenate is spun at 1,000×g for ten minutes. The supernatant is collected and spun for 20 minutes at 44,000×g. The pellet is suspended in 15 volumes of water (relative to original brain weight). The homogenate is again spun at 44,000×g for twenty minutes. The pellet is resuspended in 5 volumes of water and the suspension is freeze-thawed 2 times. After the final thaw cycle, the suspension is brought to 15 volumes with water and spun at 44,000×g for twenty minutes. The pellet is resuspended in 5 volumes of ice-cold 10 mM HEPES, and is titrated to pH 7.4 with KOH containing 0.04% Triton X-100. Membranes are incubated with the Triton/HEPES buffer at 37° C. for 15 minutes. The volume is then brought to 15 with ice-cold 10 mM HEPES, pH 7.4, and spun/washed three times with spins of 44,000×g between washes. The final pellet is suspended in three volumes of 50 mM HEPES, pH 7.4 and the protein concentration is determined with a standard dye-binding protein assay (Bio-Rad, Richmond, Calif.). The suspension is stored at-80° C. until used. Only HPLC grade water is used for all buffers and suspensions/washings. The extensive washings are necessary to remove as much endogenous glycine from the membrane preparation as possible.
Nonspecific binding is defined as the […] presence of PCP (final concentration: 100 μM). To determine the effect of 1 μM glycine on the binding of [3H]-MK801, bound radioactivity in the presence of 10 μM glutamate alone (final concentration) is subtracted from the bound radioactivity in the presence of both 10 μM glummate and 1 μM glycine (final concentration). A 500 nM concentration (final) of 5,7-dichlorokynurenic (DCK) acid is added to all assay tubes. This concentration of the glycine antagonist DCK "buffers" most of the residual endogenous glycine that is not removed by the extensive washing steps that are carried out during the membrane preparation procedure.
The assays are incubated for 120 minutes at room temperature after which time the membrane-bound radioactivity is isolated from the free radioactivity by vacuum filtration through Whatman glass fiber filters that had been pretreated with 0.3% polyethyleneimine. Filtration is accomplished using a Brandel 48 well cell harvester. Filtered membranes are washed three times with 3 ml each of ice cold buffer. Filters are transferred to scintillation vials and 5 ml of scintillation cocktail is added. The vials are shaken overnight and the radioactivity is counted by liquid scintillation spectroscopy. The assays are done in triplicate and all experiments are conducted at least three times.

[9] = tested on: glycine receptor; experiment: binding to the glycine receptor (general statement); conditions: in words

For `C[C@]12N[C@H](Cc3ccccc31)c1ccccc12` [MK-801], the Kd [1] is given as roughly 3 nM, the neuroprotective efficacy [2] is given as “neuroprotective efficacy both in vitro and in vivo” and the “PCP-like behavioral side effects” value [3] is given as “adverse PCP-like behavioral side effects”.

In the case of `CNC1(c2ccccc2Cl)CCCCC1=O` (stereo not drawn) [ketamine], the neuroprotective efficacy [2] is listed as “neuroprotective efficacy both in vitro and in vivo”.

For `NC1CCN(O)C1=O` (stereo not drawn) [HA-966], the “affinity for the glycine binding site” value ([4]; in words) is given as “micromolar affinity”, the “mode of action at the glycine binding site” value ([4]; in words) is given as “partial agonist” and the blood/brain barrier penetration ([5]; in words) is given as “sufficiently penetrates the blood/brain barrier”.

In the case of `c1ccc(C2(N3CCCCC3)CCCCC2)cc1` [PCP, phencyclidine], the neuroprotective efficacy [2] is given as “neuroprotective efficacy both in vitro and in vivo”, the “PCP-like behavioral effects in rodents / animal models” value [6] is given as “behavioral excitation (hyperlocomotion)” and the “PCP-like behavioral effect in pigeons” value [7] is given as “characteristic katalepsy”.

For `O=c1[nH]c2cc(Cl)cc(Cl)c2[nH]c1=O` [5,7-dichloro-QX], the “potency relative to 5,7-dichlorokynurenic acid (DCK)” value [8] was 20%.

For `NCC(=O)O` [glycine], the Kd ([4]; used in Cheng and Prusoff equation, read-out: known affinity of glycine for the glycine binding site) is given as 100 nM.

For `O=C(O)c1cc(O)c2ccc(Cl)cc2n1` [7-Cl-kynurenic acid], the “affinity for the glycine binding site” value ([4]; in words) is listed as “relatively high receptor binding affinity” and the blood/brain barrier penetration ([5]; in words) is listed as “cannot penetrate the blood/brain barrier”.

For `O=C(O)[C@@H]1C[C@H](CP(=O)(O)O)CCN1` [CGS 19755], the neuroprotective efficacy [2] is listed as “neuroprotective efficacy” and the “PCP-like behavioral side effects” value [3] is listed as “adverse PCP-like behavioral side effects”.

In the case of `COc1ccc2c(c1)[C@]13CCCC[C@@H]1[C@H](C2)N(C)CC3` [dextromethorphan], the neuroprotective efficacy [2] is listed as “neuroprotective efficacy both in vitro and in vivo”.

In the case of `O=C(O)C1CC2CC(CP(=O)(O)O)CCC2CN1` (stereo not drawn) [LY274614], the neuroprotective efficacy [2] is listed as “neuroprotective efficacy”.

Compound “5,6-dichloro-3-nitro-4-hydroxy-1,2-dihydroquinolin-2-one [Compound 16f]” has a Ki [8] of 800 nM.

With `O=c1[nH]c2ccc([N+](=O)[O-])cc2c(O)c1[N+](=O)[O-]` [Compound 16b, 3,6-Dinitro-4-hydroxy-1,2-dihydroquinolin-2-one] the “activity relative to 16a” value ([8]; in words) was “about as active as 16a”.

In the case of `O=C(O)c1cc(O)c2c(Cl)cc(Cl)cc2n1` [5,7-dichlorokynurenic acid], the “affinity for the glycine binding site” value ([4]; in words) is listed as “relatively high receptor binding affinity” and the blood/brain barrier penetration ([5]; in vivo) is listed as “cannot penetrate the blood/brain barrier”.

In the case of `O=c1[nH]c2cc(Cl)cc(Cl)c2c(O)c1[N+](=O)[O-]` [Compound 16c, 5,7-dichloro-3-nitro-4-hydroxy-1,2-dihydroquinolin-2-one], the “potency relative to 5,7-dichlorokynurenic acid (DCK)” value [8] is reported as 19% and the Ki [8] is reported as 1400 nM.

For `O=C(O)c1cc2ccccc2[nH]1` [indole-2-carboxylic acid], the “affinity for the glycine binding site” value ([4]; in words) is listed as “relatively high receptor binding affinity” and the blood/brain barrier penetration ([5]; in words) is listed as “cannot penetrate the blood/brain barrier”.

In the case of `O=c1[nH]c2ccccc2c(O)c1[N+](=O)[O-]` [Compound 16a, 3-Nitro-4-hydroxy-1,2-dihydroquinolin-2-one], the “potency relative to 5,7-dichlorokynurenic acid (DCK)” value [8] is reported as 1.4%, the Ki [8] is reported as 18000 nM and the “binding to the glycine receptor” value [9] is reported as “high binding”. For the same compound, the “selectivity for the glycine receptor” value [9] was “highly selective”.
